Reference: ChEMBL document CHEMBL1201862, “PubChem BioAssay data set” (2004)
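The compound was tested at five concentrations on cells cultured in 96-well plates, with a 48-hour exposure period. GI50: concentration for 50% inhibition of growth.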 The source made the active and inactive calls. Rule as the data show it: active = GI50 up to about 1.1 µM and inactive = higher.

Columns and labels:
Test in all cases: NCI tumour cell line growth inhibition, 48 h
TK-10 = test system: TK-10
MDA-N = test system: MDA-N
BT-549 = test system: BT-549
UACC-257 = test system: UACC-257
HT-29 = test system: HT-29
MDA-MB-231 = test system: MDA-MB-231
CCRF-CEM = test system: CCRF-CEM
NCI/ADR-RES = test system: NCI/ADR-RES
MOLT-4 = test system: MOLT-4
RPMI-8226 = test system: RPMI-8226
U-251 = test system: U-251
SK-MEL-2 = test system: SK-MEL-2
UACC-62 = test system: UACC-62
DU-145 = test system: DU-145
NCI-H460 = test system: NCI-H460
CAKI-1 = test system: CAKI-1
K562 = test system: K562
OVCAR-4 = test system: OVCAR-4
SW-620 = test system: SW-620
SF-295 = test system: SF-295
HCC 2998 = test system: HCC 2998
MDA-MB-435 = test system: MDA-MB-435
OVCAR-3 = test system: OVCAR-3
SNB-19 = test system: SNB-19
SF-539 = test system: SF-539
HCT-15 = test system: HCT-15
SK-MEL-5 = test system: SK-MEL-5
NCI-H23 = test system: NCI-H23
OVCAR-5 = test system: OVCAR-5
MCF7 = test system: MCF7
HOP-62 = test system: HOP-62
NCI-H226 = test system: NCI-H226
PC-3 = test system: PC-3
SF-268 = test system: SF-268
EKVX = test system: EKVX
COLO 205 = test system: COLO 205
786-0 = test system: 786-0
RXF 393 = test system: RXF 393
HCT-116 = test system: HCT-116
SR = test system: SR
SNB-75 = test system: SNB-75
HOP-92 = test system: HOP-92
HL-60 = test system: HL-60
A498 = test system: A498
UO-31 = test system: UO-31
Hs-578T = test system: Hs-578T
OVCAR-8 = test system: OVCAR-8
A549 = test system: A549
SN12C = test system: SN12C
NCI-H522 = test system: NCI-H522
IGROV-1 = test system: IGROV-1
M14 = test system: M14
ACHN = test system: ACHN
SK-OV-3 = test system: SK-OV-3
Malme-3M = test system: Malme-3M
KM12 = test system: KM12
SK-MEL-28 = test system: SK-MEL-28
LOX IMVI = test system: LOX IMVI
T47D = test system: T47D

Measured: GI50

COC(=O)c1c(O)c(C#N)c2[nH]c3ccccc3n2c1=O
inactive: TK-10 > 100 µM | MDA-N > 100 µM | BT-549 > 100 µM | UACC-257 > 100 µM | HT-29 > 100 µM | MDA-MB-231 > 100 µM | CCRF-CEM > 100 µM | NCI/ADR-RES > 100 µM | MOLT-4 > 100 µM | RPMI-8226 > 100 µM | U-251 > 100 µM | SK-MEL-2 > 100 µM | UACC-62 > 100 µM | DU-145 > 100 µM | NCI-H460 > 100 µM | CAKI-1 > 100 µM | K562 > 100 µM | OVCAR-4 > 100 µM | SW-620 > 100 µM | SF-295 > 100 µM | HCC 2998 > 100 µM | MDA-MB-435 > 100 µM | OVCAR-3 > 100 µM | SNB-19 > 100 µM | SF-539 > 100 µM | SK-MEL-5 > 100 µM | NCI-H23 > 100 µM | OVCAR-5 > 100 µM | MCF7 > 100 µM | HOP-62 > 100 µM | NCI-H226 > 100 µM | PC-3 > 100 µM | SF-268 > 100 µM | EKVX > 100 µM | COLO 205 > 100 µM | 786-0 > 100 µM | RXF 393 > 100 µM | HCT-116 > 100 µM | SR > 100 µM | SNB-75 > 100 µM | HOP-92 > 100 µM | HL-60 > 100 µM | A498 > 100 µM | UO-31 > 100 µM | Hs-578T > 100 µM | OVCAR-8 > 100 µM | A549 > 100 µM | SN12C > 100 µM | NCI-H522 > 100 µM | IGROV-1 > 100 µM | M14 > 100 µM | ACHN > 100 µM | SK-OV-3 > 100 µM | Malme-3M > 100 µM | KM12 > 100 µM
> 100 µM: HCT-15

O=C1CSC(c2ccc([N+](=O)[O-])cc2)N1c1nc(-c2ccc3c(c2)CCCC3)cs1 (stereo not drawn)
> 100 µM: HCT-15
inactive: SK-MEL-28 > 100 µM | TK-10 > 100 µM | MDA-N > 100 µM | BT-549 94.6 µM | UACC-257 > 100 µM | HT-29 > 100 µM | MDA-MB-231 70.1 µM | NCI/ADR-RES > 100 µM | MOLT-4 > 100 µM | LOX IMVI 25.1 µM | RPMI-8226 > 100 µM | U-251 > 100 µM | SK-MEL-2 39.5 µM | UACC-62 63.1 µM | DU-145 > 100 µM | NCI-H460 > 100 µM | CAKI-1 > 100 µM | K562 > 100 µM | OVCAR-4 > 100 µM | SW-620 > 100 µM | SF-295 > 100 µM | HCC 2998 > 100 µM | MDA-MB-435 33.4 µM | OVCAR-3 > 100 µM | SNB-19 > 100 µM | SF-539 27.2 µM | SK-MEL-5 51.1 µM | NCI-H23 > 100 µM | OVCAR-5 > 100 µM | MCF7 31.7 µM | HOP-62 > 100 µM | NCI-H226 > 100 µM | PC-3 > 100 µM | SF-268 > 100 µM | EKVX > 100 µM | COLO 205 > 100 µM | 786-0 > 100 µM | RXF 393 > 100 µM | HCT-116 > 100 µM | SR > 100 µM | SNB-75 86.9 µM | HL-60 > 100 µM | A498 > 100 µM | UO-31 > 100 µM | Hs-578T > 100 µM | OVCAR-8 > 100 µM | SN12C > 100 µM | NCI-H522 > 100 µM | IGROV-1 25.1 µM | ACHN > 100 µM | Malme-3M > 100 µM | KM12 > 100 µM

CCN(CC)C(=S)Nc1ccc(-c2cc3ccc(O)cc3oc2=O)cc1
inactive: SK-MEL-28 25.9 µM | TK-10 39 µM | MDA-N 24.8 µM | BT-549 26.1 µM | UACC-257 22 µM | HT-29 16.8 µM | MDA-MB-231 39.4 µM | CCRF-CEM 16.4 µM | NCI/ADR-RES 20.6 µM | MOLT-4 13.4 µM | LOX IMVI 25.9 µM | RPMI-8226 21.6 µM | U-251 11.8 µM | SK-MEL-2 20.3 µM | UACC-62 32.4 µM | DU-145 29.8 µM | NCI-H460 31.4 µM | CAKI-1 31.2 µM | K562 18.4 µM | SW-620 34 µM | SF-295 36.5 µM | HCC 2998 20.2 µM | MDA-MB-435 28.6 µM | OVCAR-3 17.4 µM | SNB-19 29.9 µM | SF-539 29.2 µM | SK-MEL-5 22.3 µM | NCI-H23 29.7 µM | OVCAR-5 26.2 µM | MCF7 > 10 µM | NCI-H226 25.6 µM | PC-3 23.4 µM | SF-268 32.1 µM | EKVX 32 µM | COLO 205 29.4 µM | 786-0 39.4 µM | RXF 393 30.2 µM | HCT-116 26.1 µM | SR 14.5 µM | SNB-75 16.4 µM | HL-60 3.76 µM | A498 20.8 µM | UO-31 17.5 µM | Hs-578T 25.4 µM | OVCAR-8 26.9 µM | A549 44.9 µM | SN12C 27 µM | NCI-H522 17 µM | IGROV-1 30.6 µM | M14 27.2 µM | ACHN 25.9 µM | SK-OV-3 44.1 µM | Malme-3M 17 µM | KM12 28.8 µM
19.7 µM: HCT-15

N#CCc1nc2cc(C(F)(F)F)ccc2s1
inactive: TK-10 41.8 µM | MDA-N 32.2 µM | BT-549 31 µM | UACC-257 34.4 µM | HT-29 37.7 µM | MDA-MB-231 95.1 µM | NCI/ADR-RES 55.7 µM | MOLT-4 7.96 µM | LOX IMVI 26.4 µM | RPMI-8226 29.4 µM | U-251 38.7 µM | DU-145 48.3 µM | CAKI-1 70.6 µM | OVCAR-4 38.6 µM | SW-620 56.4 µM | SF-295 49.4 µM | MDA-MB-435 40.4 µM | OVCAR-3 18.3 µM | SF-539 51.8 µM | SK-MEL-5 50.7 µM | NCI-H23 27.7 µM | OVCAR-5 > 100 µM | HOP-62 73.3 µM | NCI-H226 57.8 µM | SF-268 34.8 µM | EKVX 10.7 µM | COLO 205 34 µM | 786-0 37.3 µM | RXF 393 52.2 µM | HCT-116 26.7 µM | SNB-75 35.3 µM | HOP-92 20.4 µM | A498 70 µM | OVCAR-8 30.1 µM | SN12C 45.5 µM | NCI-H522 11.1 µM | T47D 23.1 µM | ACHN 56 µM | SK-OV-3 > 100 µM | Malme-3M 42.6 µM | KM12 64.6 µM
52.1 µM: HCT-15

COc1ccc(OC)c(CNc2ccc(O)c(C(=O)NCCc3ccc(F)cc3)c2)c1
inactive: SK-MEL-28 3.3 µM | TK-10 28.9 µM | MDA-N 4.06 µM | BT-549 17.1 µM | UACC-257 13.5 µM | HT-29 18 µM | MDA-MB-231 7 µM | CCRF-CEM 7.23 µM | NCI/ADR-RES 10.1 µM | MOLT-4 4.05 µM | LOX IMVI 11.1 µM | RPMI-8226 2.83 µM | U-251 11.9 µM | SK-MEL-2 8.15 µM | UACC-62 8.89 µM | DU-145 12.8 µM | NCI-H460 13.2 µM | CAKI-1 21.5 µM | K562 3.74 µM | OVCAR-4 9.95 µM | SW-620 15.7 µM | SF-295 13.7 µM | HCC 2998 3.58 µM | MDA-MB-435 2.74 µM | OVCAR-3 7.57 µM | SNB-19 15.1 µM | SF-539 15.8 µM | SK-MEL-5 7.19 µM | NCI-H23 17.1 µM | OVCAR-5 22.4 µM | MCF7 10.8 µM | HOP-62 4.08 µM | PC-3 10.1 µM | SF-268 11.6 µM | EKVX 19.7 µM | COLO 205 18.6 µM | 786-0 23.8 µM | HCT-116 12.1 µM | SR 3.44 µM | A498 16.4 µM | UO-31 7.18 µM | Hs-578T 22.7 µM | OVCAR-8 16.2 µM | A549 20.7 µM | SN12C 19.5 µM | NCI-H522 2.83 µM | IGROV-1 5.68 µM | M14 10.4 µM | ACHN 24 µM | SK-OV-3 17.3 µM | KM12 9.71 µM
12.6 µM: HCT-15
